Measurements from patent US8445678B2, “2-quinoxalinol salen compounds and uses thereof” (Auburn University, priority 2008, dated 2013).

Experiments:
[1] = Stability of ligands, imines, intermediates and catalysts (temperature, air, moisture, solvents); assay type: physicochemical; details: exposure to air
[2] = Catalytic oxidation of diphenylmethane into benzophenone; details: yields by flash column chromatography and mass calculation
Procedure: The conversion of diphenylmethane into benzophenone was selected to test the activity of catalyst salquCu 1 and to develop optimized conditions, Based on previous reports with salphCu, three equivalents of H2O2 in CH3CN as solvent with 1% by molar of the catalyst salquCu 1 was heated to reflux temperature for 18 hours. Under these conditions, the isolated yield of benzophenone was only 27%. Six experimental factors were considered to optimizing this reaction: oxidant (FIG. 7), catalyst ratio (FIG. 8), reaction time (FIG. 9), oxidant ratio (FIG. 10), solvent, and types of catalyst (FIG. 11 and Table 10).
First, four oxidants were tested using CH3CN as solvent in each case, with 1% of catalyst 1 at reflux temperature for 18 hours. […] When tert-butylhydroperoxide in water was used as the oxidant, the yield of product, benzophenone, was around 80%. (FIG. 7) The use of tert-butylhydroperoxide in decane allows for a uniform or monophasic organic soluble catalyst system, and thus further improves the optimal yield. […]
The synthesis of the products depicted in Table 11 began with the combination of catalyst 1 (0.02 mmol, 15.2 mg) and 2.0 mmol of starting material (aryl methylene compound) dissolved in 2.0 mL acetonitrile with 1.0 mL tert-butylhydroperoxide decane solution (6.0 mmol). The reaction mixture was allowed to stir for 18 hours at 70° C. and monitored by TLC. […]

Nc1cc2ncc(O)nc2cc1N [Intermediate 1e]
stability in air / atmospheric conditions [1]: not stable and was found to decompose on exposure to air | Yield (%) of benzophenone, optimized conditions with different salquCu catalysts [2]: 90%
